Patent publication US12508246B2, “Uses of complex of angiotensin II receptor antagonist metabolite and NEP inhibitor in treating heart failure” (SHENZHEN SALUBRIS PHARMACEUTICALS CO. LTD, priority 2019, dated 2025)
Values joined by “and” are separate entries in the source; they are usually repeats but may differ in a detail not shown here. Equal values may be shown once. Marks after values point to notes of the source that are not given here.

Key:
[1] = test system: dogs with heart failure (preserved ejection fraction); test: Pharmacodynamic study in the canine chronic heart failure model-preserved ejection fraction (LAD ligation, echocardiography); assay type: in vivo; conditions: HFpEF dog model; 100 mpk (mix: EXP3174 52 mpk + sacubitril 48 mpk) p.o. qd, from 3 d after modeling for 2 weeks; Mean ± SD; model 51.80, sham 68.15
Experimental: 5.1 Methods: After the animals arrived at the facility, they were on adaptive feeding, and randomized after echocardiography and ECG, and then the experiment was started. On the day of operation, animals were anesthetized by intramuscular injection of Zoletil (5 mg/kg). The tracheae of the anesthetized dogs were connected to the ventilator, and then they were fixed in a supine position; their chests were opened between the third and fourth ribs, the left anterior descending coronary artery was ligated to close the thoracic cavity, and then the skin was sutured. After the animals recovered for 3 days after operation, they were given therapeutic drugs by gavage, once a day for two consecutive weeks. During the experiment, the animals' living conditions were observed every day, and their abnormal conditions were recorded. After 14 days of dosing, echocardiography was performed.
(§1) 5.2 Modeling: On the day before operation, the animals were fasted overnight. On the day of operation, the animals were intramuscularly injected with Zoletil (dose: 5 mg/kg) to induce anesthesia, and also were intramuscularly administered with atropine sulfate injection (dose: 0.5 mg/dog). After the animals were anesthetized, their hair on the left chest was shaved clean. […]

[2] = test system: dogs with heart failure (reduced ejection fraction); test: Pharmacodynamic study in the canine chronic heart failure model-reduced ejection fraction (LAD ligation, echocardiography); assay type: in vivo; conditions: HFrEF dog model; 100 mpk (mix: EXP3174 52 mpk + sacubitril 48 mpk) p.o. qd, from 3 d after modeling for 6 weeks; Mean ± SD; model 35.82, sham 66.20
Experimental: 4.1 Methods: After the animals arrived at the facility, they were on adaptive feeding, and randomized after echocardiography and ECG, and then the experiment was started. On the day of operation, animals were anesthetized by intramuscular injection of Zoletil (5 mg/kg). The trachea of the anesthetized dogs were connected to the ventilator, and then they were fixed in a supine position, their chest was opened between the third and fourth ribs, the left anterior descending coronary artery was ligated to close the thoracic cavity, and then the skin was sutured. After the animals recovered for 3 days after operation, they were given therapeutic drugs by gavage, once a day for […] consecutive weeks. During the experiment, animal's living conditions were observed every day, and their abnormal conditions were recorded. After 42 days of dosing, echocardiography was performed.
as §1, with “4.2” for “5.2”

Substance	endpoint left ventricular ejection fraction LVEF (%) [1]	endpoint left ventricular ejection fraction LVEF (%) [2]
(EXP3174·AHU377)^3−·1.5 Ca^2+·2H2O [Complex of the invention]	58.04 ± 1.29***^@ %	51.87 ± 1.01***^@$ %
Valsartan-Sacubitril sodium salt complex [LCZ696]	57.98% and 57.98 ± 2.64 %	46.45% and 46.45 ± 3.39 %
